Laboratory results published in ChEMBL document CHEMBL1201862, “PubChem BioAssay data set” (2004).
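Protocol summary: plate cells (96-well), add compound at 5 concentrations, incubate 48 h, interpolate endpoints linearly. GI50: concentration for 50% inhibition of growth.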 Calls of active or inactive are those of the source. Rule as the data show it: active = GI50 up to about 1.1 µM and inactive = higher.

Tests used:
Assay in all cases: growth of human tumour cells (NCI), 48 h
CAKI-1 = system: CAKI-1
COLO 205 = system: COLO 205
IGROV-1 = system: IGROV-1
LOX IMVI = system: LOX IMVI
NCI-H226 = system: NCI-H226
NCI-H460 = system: NCI-H460
OVCAR-8 = system: OVCAR-8
SF-295 = system: SF-295
SK-MEL-28 = system: SK-MEL-28
SK-OV-3 = system: SK-OV-3
SN12C = system: SN12C
SNB-75 = system: SNB-75
SW-620 = system: SW-620
UACC-257 = system: UACC-257
UO-31 = system: UO-31
HL-60 = system: HL-60
RPMI-8226 = system: RPMI-8226
NCI-H522 = system: NCI-H522

Measured: GI50

Cc1cc(O)c2c3c1C(=O)Oc1c(CO)c(O)c(C(=O)O)c(c1O3)C=NN=Cc1c3c(c(CO)c(O)c1C(=O)O)OC(=O)c1c(C)cc(O)c(c1O3)C=NN=C2
inactive: CAKI-1 > 100 µM | COLO 205 > 100 µM | IGROV-1 > 100 µM | LOX IMVI > 100 µM | NCI-H226 > 100 µM | NCI-H460 > 100 µM | OVCAR-8 > 100 µM | SF-295 > 100 µM | SK-MEL-28 > 100 µM | SK-OV-3 > 100 µM | SN12C > 100 µM | SNB-75 > 100 µM | SW-620 > 100 µM | UACC-257 > 100 µM | UO-31 > 100 µM

COC(=O)CC(NC(=O)OCc1ccccc1)C(C(=O)OCc1ccccc1)C1(C)OCCO1 (stereo not given)
inactive: COLO 205 18.6 µM | HL-60 21.1 µM | IGROV-1 40 µM | LOX IMVI 28.9 µM | NCI-H226 22.5 µM | NCI-H460 34.7 µM | OVCAR-8 25.2 µM | RPMI-8226 22.1 µM | SF-295 32.4 µM | SK-MEL-28 66.5 µM | SN12C 47.4 µM | SNB-75 23.6 µM | SW-620 47.6 µM | UACC-257 30.4 µM | UO-31 18.2 µM

N#Cc1c(-c2ccc(Cl)c(Cl)c2)c(-c2ccc(Cl)c(Cl)c2)nn(CC(=O)O)c1=O
inactive: CAKI-1 38.5 µM | COLO 205 71.4 µM | HL-60 43.1 µM | IGROV-1 > 100 µM | LOX IMVI 41.3 µM | NCI-H226 24 µM | NCI-H460 36.9 µM | OVCAR-8 57 µM | RPMI-8226 79.4 µM | SF-295 48.6 µM | SK-MEL-28 75.2 µM | SK-OV-3 > 100 µM | SN12C 51.3 µM | SNB-75 30.5 µM | SW-620 53.6 µM | UACC-257 66.2 µM | UO-31 57.8 µM

Cc1no[n+]([O-])c1/C=N/NS(=O)(=O)c1ccccc1
inactive: CAKI-1 > 100 µM | COLO 205 > 100 µM | HL-60 > 100 µM | IGROV-1 > 100 µM | NCI-H522 > 100 µM | OVCAR-8 > 100 µM | RPMI-8226 > 100 µM | SK-MEL-28 > 100 µM | SK-OV-3 > 100 µM | SN12C > 100 µM | SW-620 > 100 µM | UO-31 > 100 µM

CCOC(=O)c1cnc2cc3cccccc3n2c1=O
inactive: CAKI-1 > 100 µM | COLO 205 > 100 µM | HL-60 > 100 µM | IGROV-1 > 100 µM | LOX IMVI > 100 µM | NCI-H226 > 100 µM | NCI-H460 > 100 µM | OVCAR-8 > 100 µM | RPMI-8226 > 100 µM | SF-295 > 100 µM | SK-MEL-28 > 100 µM | SN12C > 100 µM | SNB-75 97.5 µM | SW-620 > 100 µM | UACC-257 > 100 µM | UO-31 > 100 µM
